Tests used:
Experiment in all cases: relative viability (nuclei count vs DMSO), 5 days (fraction); higher = more cells survive
Ponatinib + Dasatinib = compound: Cc1ccc(C(=O)Nc2ccc(CN3CCN(C)CC3)c(C(F)(F)F)c2)cc1C#Cc1cnc2cccnn12 [Ponatinib] + Cc1nc(Nc2ncc(C(=O)Nc3c(C)cccc3Cl)s2)cc(N2CCN(CCO)CC2)n1 [Dasatinib] (partner 0.075 µM)
Method in brief: (§1)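 Medians of duplicate plates are given as relative viability. That measure is the nuclei count in treated wells divided by the count in vehicle wells. Counts were taken on 4× images of lung cancer cell lines in 1536-well plates, 5 days after pin-tool dosing the day after seeding with one drug alone or a fixed anchor-drug dose plus five library-drug doses (not always all listed) in √10 steps.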

Pazopanib + OSI-027 = compound: Cc1ccc(Nc2nccc(N(C)c3ccc4c(C)n(C)nc4c3)n2)cc1S(N)(=O)=O [Pazopanib] + COc1cccc2cc(-c3nc([C@H]4CC[C@H](C(=O)O)CC4)n4ncnc(N)c34)[nH]c12 [OSI-027] (partner 0.5 µM)
Method in brief: as §1

Pazopanib + Alpelisib = compound: Cc1ccc(Nc2nccc(N(C)c3ccc4c(C)n(C)nc4c3)n2)cc1S(N)(=O)=O [Pazopanib] + Cc1nc(NC(=O)N2CCC[C@H]2C(N)=O)sc1-c1ccnc(C(C)(C)C(F)(F)F)c1 [Alpelisib] (partner 2 µM)
Method in brief: as §1

Pazopanib + Vorinostat = compound: Cc1ccc(Nc2nccc(N(C)c3ccc4c(C)n(C)nc4c3)n2)cc1S(N)(=O)=O [Pazopanib] + O=C(CCCCCCC(=O)Nc1ccccc1)NO [Vorinostat] (partner 1 µM)
Method in brief: as §1

Cell Line: NCI-H2087
- relative viability (Ponatinib + Dasatinib; first compound 0.002 µM): 0.83
- relative viability (Ponatinib + Dasatinib; first compound 0.006325 µM): 0.743
- relative viability (Ponatinib + Dasatinib; first compound 0.06325 µM): 0.798
- relative viability (Ponatinib + Dasatinib; first compound 0.2 µM): 0.525
- relative viability (Pazopanib + OSI-027; first compound 0.01 µM): 0.502
- relative viability (Pazopanib + OSI-027; first compound 0.03162 µM): 0.567
- relative viability (Pazopanib + OSI-027; first compound 0.1 µM): 0.489
- relative viability (Pazopanib + OSI-027; first compound 0.3162 µM): 0.553
- relative viability (Pazopanib + OSI-027; first compound 1 µM): 0.487
- relative viability (Pazopanib + Alpelisib; first compound 0.01 µM): 1.08
- relative viability (Pazopanib + Alpelisib; first compound 0.03162 µM): 1.14
- relative viability (Pazopanib + Alpelisib; first compound 0.1 µM): 1.22
- relative viability (Pazopanib + Alpelisib; first compound 0.3162 µM): 0.979
- relative viability (Pazopanib + Alpelisib; first compound 1 µM): 1.06
- relative viability (Pazopanib + Vorinostat; first compound 0.01 µM): 0.945
- relative viability (Pazopanib + Vorinostat; first compound 0.03162 µM): 0.642
- relative viability (Pazopanib + Vorinostat; first compound 0.1 µM): 0.704
- relative viability (Pazopanib + Vorinostat; first compound 0.3162 µM): 0.733
- relative viability (Pazopanib + Vorinostat; first compound 1 µM): 0.317

Cell Line: NCI-H1437
- relative viability (Ponatinib + Dasatinib; first compound 0.002 µM): 0.316
- relative viability (Ponatinib + Dasatinib; first compound 0.006325 µM): 0.382
- relative viability (Ponatinib + Dasatinib; first compound 0.06325 µM): 0.36
- relative viability (Ponatinib + Dasatinib; first compound 0.2 µM): 0.357
- relative viability (Pazopanib + OSI-027; first compound 0.01 µM): 0.901
- relative viability (Pazopanib + OSI-027; first compound 0.03162 µM): 0.879
- relative viability (Pazopanib + OSI-027; first compound 0.1 µM): 0.998
- relative viability (Pazopanib + OSI-027; first compound 0.3162 µM): 0.907
- relative viability (Pazopanib + OSI-027; first compound 1 µM): 1.05
- relative viability (Pazopanib + Alpelisib; first compound 0.01 µM): 0.938
- relative viability (Pazopanib + Alpelisib; first compound 0.03162 µM): 1.02
- relative viability (Pazopanib + Alpelisib; first compound 0.1 µM): 0.964
- relative viability (Pazopanib + Alpelisib; first compound 0.3162 µM): 0.938
- relative viability (Pazopanib + Alpelisib; first compound 1 µM): 1.05
- relative viability (Pazopanib + Vorinostat; first compound 0.01 µM): 0.833
- relative viability (Pazopanib + Vorinostat; first compound 0.03162 µM): 0.778
- relative viability (Pazopanib + Vorinostat; first compound 0.1 µM): 0.82
- relative viability (Pazopanib + Vorinostat; first compound 0.3162 µM): 0.762
- relative viability (Pazopanib + Vorinostat; first compound 1 µM): 0.75

Cell Line: NCI-H661
- relative viability (Ponatinib + Dasatinib; first compound 0.002 µM): 0.786
- relative viability (Ponatinib + Dasatinib; first compound 0.006325 µM): 0.965
- relative viability (Ponatinib + Dasatinib; first compound 0.06325 µM): 0.987
- relative viability (Ponatinib + Dasatinib; first compound 0.2 µM): 0.819
- relative viability (Pazopanib + OSI-027; first compound 0.01 µM): 0.669
- relative viability (Pazopanib + OSI-027; first compound 0.03162 µM): 0.784
- relative viability (Pazopanib + OSI-027; first compound 0.1 µM): 0.745
- relative viability (Pazopanib + OSI-027; first compound 0.3162 µM): 0.689
- relative viability (Pazopanib + OSI-027; first compound 1 µM): 0.735
- relative viability (Pazopanib + Alpelisib; first compound 0.01 µM): 0.549
- relative viability (Pazopanib + Alpelisib; first compound 0.03162 µM): 0.581
- relative viability (Pazopanib + Alpelisib; first compound 0.1 µM): 0.595
- relative viability (Pazopanib + Alpelisib; first compound 0.3162 µM): 0.669
- relative viability (Pazopanib + Alpelisib; first compound 1 µM): 0.866
- relative viability (Pazopanib + Vorinostat; first compound 0.01 µM): 0.773
- relative viability (Pazopanib + Vorinostat; first compound 0.03162 µM): 0.808
- relative viability (Pazopanib + Vorinostat; first compound 0.1 µM): 0.875
- relative viability (Pazopanib + Vorinostat; first compound 0.3162 µM): 0.759
- relative viability (Pazopanib + Vorinostat; first compound 1 µM): 0.802

Cell Line: COR-L23
- relative viability (Ponatinib + Dasatinib; first compound 0.002 µM): 0.526
- relative viability (Ponatinib + Dasatinib; first compound 0.006325 µM): 0.502
- relative viability (Ponatinib + Dasatinib; first compound 0.06325 µM): 0.666
- relative viability (Ponatinib + Dasatinib; first compound 0.2 µM): 0.433
- relative viability (Pazopanib + OSI-027; first compound 0.01 µM): 0.91
- relative viability (Pazopanib + OSI-027; first compound 0.03162 µM): 0.838
- relative viability (Pazopanib + OSI-027; first compound 0.1 µM): 0.872
- relative viability (Pazopanib + OSI-027; first compound 0.3162 µM): 0.832
- relative viability (Pazopanib + OSI-027; first compound 1 µM): 0.913
- relative viability (Pazopanib + Alpelisib; first compound 0.01 µM): 0.752
- relative viability (Pazopanib + Alpelisib; first compound 0.03162 µM): 0.957
- relative viability (Pazopanib + Alpelisib; first compound 0.1 µM): 0.993
- relative viability (Pazopanib + Alpelisib; first compound 0.3162 µM): 0.925
- relative viability (Pazopanib + Alpelisib; first compound 1 µM): 0.717
- relative viability (Pazopanib + Vorinostat; first compound 0.01 µM): 0.446
- relative viability (Pazopanib + Vorinostat; first compound 0.03162 µM): 0.5
- relative viability (Pazopanib + Vorinostat; first compound 0.1 µM): 0.424
- relative viability (Pazopanib + Vorinostat; first compound 0.3162 µM): 0.508
- relative viability (Pazopanib + Vorinostat; first compound 1 µM): 0.514

Cell Line: COR-L 105
- relative viability (Ponatinib + Dasatinib; first compound 0.002 µM): 0.314
- relative viability (Ponatinib + Dasatinib; first compound 0.006325 µM): 0.41
- relative viability (Ponatinib + Dasatinib; first compound 0.06325 µM): 0.344
- relative viability (Ponatinib + Dasatinib; first compound 0.2 µM): 0.341
- relative viability (Pazopanib + OSI-027; first compound 0.01 µM): 0.636
- relative viability (Pazopanib + OSI-027; first compound 0.03162 µM): 0.665
- relative viability (Pazopanib + OSI-027; first compound 0.1 µM): 0.635
- relative viability (Pazopanib + OSI-027; first compound 0.3162 µM): 0.75
- relative viability (Pazopanib + OSI-027; first compound 1 µM): 0.857
- relative viability (Pazopanib + Alpelisib; first compound 0.01 µM): 0.981
- relative viability (Pazopanib + Alpelisib; first compound 0.03162 µM): 1.03
- relative viability (Pazopanib + Alpelisib; first compound 0.1 µM): 1.04
- relative viability (Pazopanib + Alpelisib; first compound 0.3162 µM): 1.07
- relative viability (Pazopanib + Alpelisib; first compound 1 µM): 1.04
- relative viability (Pazopanib + Vorinostat; first compound 0.01 µM): 0.867
- relative viability (Pazopanib + Vorinostat; first compound 0.03162 µM): 0.959
- relative viability (Pazopanib + Vorinostat; first compound 0.1 µM): 0.765
- relative viability (Pazopanib + Vorinostat; first compound 0.3162 µM): 0.878
- relative viability (Pazopanib + Vorinostat; first compound 1 µM): 0.882

Cell Line: LK-2
- relative viability (Ponatinib + Dasatinib; first compound 0.006325 µM): 0.268
- relative viability (Ponatinib + Dasatinib; first compound 0.06325 µM): 0.196
- relative viability (Ponatinib + Dasatinib; first compound 0.2 µM): 0.158
- relative viability (Pazopanib + OSI-027; first compound 0.01 µM): 0.199
- relative viability (Pazopanib + OSI-027; first compound 0.03162 µM): 0.228
- relative viability (Pazopanib + OSI-027; first compound 0.1 µM): 0.185
- relative viability (Pazopanib + OSI-027; first compound 0.3162 µM): 0.233
- relative viability (Pazopanib + OSI-027; first compound 1 µM): 0.171
- relative viability (Pazopanib + Alpelisib; first compound 0.01 µM): 0.816
- relative viability (Pazopanib + Alpelisib; first compound 0.03162 µM): 0.996
- relative viability (Pazopanib + Alpelisib; first compound 0.1 µM): 1.03
- relative viability (Pazopanib + Alpelisib; first compound 0.3162 µM): 1.05
- relative viability (Pazopanib + Alpelisib; first compound 1 µM): 0.843
- relative viability (Pazopanib + Vorinostat; first compound 0.01 µM): 0.201
- relative viability (Pazopanib + Vorinostat; first compound 0.03162 µM): 0.26
- relative viability (Pazopanib + Vorinostat; first compound 0.1 µM): 0.252
- relative viability (Pazopanib + Vorinostat; first compound 0.3162 µM): 0.236
- relative viability (Pazopanib + Vorinostat; first compound 1 µM): 0.235

Cell Line: 201T
- relative viability (Ponatinib + Dasatinib; first compound 0.002 µM): 0.61
- relative viability (Ponatinib + Dasatinib; first compound 0.006325 µM): 0.593
- relative viability (Ponatinib + Dasatinib; first compound 0.06325 µM): 0.593
- relative viability (Ponatinib + Dasatinib; first compound 0.2 µM): 0.461
- relative viability (Pazopanib + OSI-027; first compound 0.01 µM): 0.83
- relative viability (Pazopanib + OSI-027; first compound 0.03162 µM): 0.575
- relative viability (Pazopanib + OSI-027; first compound 0.1 µM): 0.799
- relative viability (Pazopanib + OSI-027; first compound 0.3162 µM): 0.742
- relative viability (Pazopanib + OSI-027; first compound 1 µM): 0.747
- relative viability (Pazopanib + Alpelisib; first compound 0.01 µM): 0.959
- relative viability (Pazopanib + Alpelisib; first compound 0.03162 µM): 1.06
- relative viability (Pazopanib + Alpelisib; first compound 0.1 µM): 1.02
- relative viability (Pazopanib + Alpelisib; first compound 0.3162 µM): 0.998
- relative viability (Pazopanib + Alpelisib; first compound 1 µM): 1.05
- relative viability (Pazopanib + Vorinostat; first compound 0.01 µM): 0.892
- relative viability (Pazopanib + Vorinostat; first compound 0.03162 µM): 0.949
- relative viability (Pazopanib + Vorinostat; first compound 0.1 µM): 0.937
- relative viability (Pazopanib + Vorinostat; first compound 0.3162 µM): 1.02
- relative viability (Pazopanib + Vorinostat; first compound 1 µM): 0.843

Cell Line: NCI-H647
- relative viability (Ponatinib + Dasatinib; first compound 0.002 µM): 0.159
- relative viability (Ponatinib + Dasatinib; first compound 0.006325 µM): 0.171
- relative viability (Ponatinib + Dasatinib; first compound 0.06325 µM): 0.211
- relative viability (Ponatinib + Dasatinib; first compound 0.2 µM): 0.117
- relative viability (Pazopanib + OSI-027; first compound 0.01 µM): 0.594
- relative viability (Pazopanib + OSI-027; first compound 0.03162 µM): 0.688
- relative viability (Pazopanib + OSI-027; first compound 0.1 µM): 0.723
- relative viability (Pazopanib + OSI-027; first compound 0.3162 µM): 0.902
- relative viability (Pazopanib + OSI-027; first compound 1 µM): 0.739
- relative viability (Pazopanib + Alpelisib; first compound 0.01 µM): 1.37
- relative viability (Pazopanib + Alpelisib; first compound 0.03162 µM): 1.31
- relative viability (Pazopanib + Alpelisib; first compound 0.1 µM): 1.35
- relative viability (Pazopanib + Alpelisib; first compound 0.3162 µM): 1.19
- relative viability (Pazopanib + Alpelisib; first compound 1 µM): 1.11
- relative viability (Pazopanib + Vorinostat; first compound 0.01 µM): 0.443
- relative viability (Pazopanib + Vorinostat; first compound 0.03162 µM): 0.59
- relative viability (Pazopanib + Vorinostat; first compound 0.1 µM): 0.706
- relative viability (Pazopanib + Vorinostat; first compound 0.3162 µM): 0.394
- relative viability (Pazopanib + Vorinostat; first compound 1 µM): 0.421

— the supplement of paper PMC10307832
